# Data: patent US20080194482A1, “Selective Apac2 Receptor Peptide Agonists” (priority 2005, published 2008)
# Square brackets hold non-standard residues; d marks the D form. Peptide text beside a SMILES is read from it. * marks the point of attachment. Orn = NCCC[C@H](N)C(=O)O; Hexanoyl = CCCCCC(=O)*; Aib = CC(C)(N)C(=O)O
# T1: rat VPAC1 receptor (Rattus norvegicus, UniProt P30083)
# T1 construct: expressed in transfected cells; host or cells: CHO-PO (transient, Lipofectamine)
# T1 sequence (P30083 31-459): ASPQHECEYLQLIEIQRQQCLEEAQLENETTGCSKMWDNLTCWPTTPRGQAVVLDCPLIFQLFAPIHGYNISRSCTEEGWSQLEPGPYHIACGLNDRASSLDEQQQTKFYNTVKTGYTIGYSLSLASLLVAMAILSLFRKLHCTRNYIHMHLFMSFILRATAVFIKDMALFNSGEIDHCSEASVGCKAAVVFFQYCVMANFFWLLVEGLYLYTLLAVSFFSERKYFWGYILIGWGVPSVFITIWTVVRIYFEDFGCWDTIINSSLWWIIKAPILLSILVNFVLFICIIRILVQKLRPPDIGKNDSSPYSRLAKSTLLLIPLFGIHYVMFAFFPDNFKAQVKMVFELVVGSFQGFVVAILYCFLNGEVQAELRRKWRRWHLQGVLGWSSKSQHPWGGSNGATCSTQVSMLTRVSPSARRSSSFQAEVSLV
# T2: human PAC1 (Homo sapiens, UniProt P41586)
# T2 construct: expressed in transfected cells
# T2 sequence (P41586 21-468): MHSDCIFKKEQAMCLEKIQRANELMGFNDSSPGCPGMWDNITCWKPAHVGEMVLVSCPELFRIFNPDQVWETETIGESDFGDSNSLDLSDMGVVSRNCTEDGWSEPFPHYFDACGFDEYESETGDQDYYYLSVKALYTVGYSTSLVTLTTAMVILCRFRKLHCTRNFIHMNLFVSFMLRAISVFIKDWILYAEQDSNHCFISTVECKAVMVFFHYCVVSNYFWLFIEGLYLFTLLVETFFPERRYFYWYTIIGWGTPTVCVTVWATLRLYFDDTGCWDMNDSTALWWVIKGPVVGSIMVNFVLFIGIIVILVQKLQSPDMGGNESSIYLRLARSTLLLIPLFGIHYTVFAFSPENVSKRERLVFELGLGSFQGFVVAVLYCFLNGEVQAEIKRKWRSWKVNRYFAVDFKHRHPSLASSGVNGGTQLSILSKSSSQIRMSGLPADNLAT
# T3: human VPAC2 (Homo sapiens, UniProt P41587)
# T3 construct: expressed in transfected cells
# T3 sequence (P41587 24-438): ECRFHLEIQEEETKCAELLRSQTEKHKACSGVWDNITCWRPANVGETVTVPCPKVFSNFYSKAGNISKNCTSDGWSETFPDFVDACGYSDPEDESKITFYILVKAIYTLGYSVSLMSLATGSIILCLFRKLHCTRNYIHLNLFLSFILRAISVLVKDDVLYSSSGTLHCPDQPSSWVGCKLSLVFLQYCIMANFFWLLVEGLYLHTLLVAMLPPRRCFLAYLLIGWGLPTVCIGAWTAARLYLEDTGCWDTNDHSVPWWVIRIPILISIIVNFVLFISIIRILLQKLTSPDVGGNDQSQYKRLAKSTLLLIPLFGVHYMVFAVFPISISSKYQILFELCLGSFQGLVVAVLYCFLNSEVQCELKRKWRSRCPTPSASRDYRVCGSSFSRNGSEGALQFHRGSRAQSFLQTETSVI
# T4: rat VPAC2 receptor (Rattus norvegicus, UniProt P35000)
# T4 construct: expressed in transfected cells; host or cells: CHO-PO (transient, Lipofectamine)
# T4 sequence (P35000 23-437): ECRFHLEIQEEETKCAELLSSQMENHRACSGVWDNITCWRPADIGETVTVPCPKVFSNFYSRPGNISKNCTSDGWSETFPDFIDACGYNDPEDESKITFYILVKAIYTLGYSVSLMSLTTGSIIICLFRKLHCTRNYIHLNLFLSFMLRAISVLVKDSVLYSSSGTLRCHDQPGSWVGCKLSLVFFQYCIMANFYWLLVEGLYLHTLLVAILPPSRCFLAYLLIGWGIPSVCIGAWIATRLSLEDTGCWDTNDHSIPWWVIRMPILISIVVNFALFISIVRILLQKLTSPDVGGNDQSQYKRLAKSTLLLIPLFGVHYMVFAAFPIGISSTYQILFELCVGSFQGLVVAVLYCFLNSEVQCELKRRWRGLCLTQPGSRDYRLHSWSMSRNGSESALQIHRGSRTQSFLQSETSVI
# T5: human VPAC1 (Homo sapiens, UniProt P32241)
# T5 construct: expressed in transfected cells
# T5 sequence (P32241 31-457): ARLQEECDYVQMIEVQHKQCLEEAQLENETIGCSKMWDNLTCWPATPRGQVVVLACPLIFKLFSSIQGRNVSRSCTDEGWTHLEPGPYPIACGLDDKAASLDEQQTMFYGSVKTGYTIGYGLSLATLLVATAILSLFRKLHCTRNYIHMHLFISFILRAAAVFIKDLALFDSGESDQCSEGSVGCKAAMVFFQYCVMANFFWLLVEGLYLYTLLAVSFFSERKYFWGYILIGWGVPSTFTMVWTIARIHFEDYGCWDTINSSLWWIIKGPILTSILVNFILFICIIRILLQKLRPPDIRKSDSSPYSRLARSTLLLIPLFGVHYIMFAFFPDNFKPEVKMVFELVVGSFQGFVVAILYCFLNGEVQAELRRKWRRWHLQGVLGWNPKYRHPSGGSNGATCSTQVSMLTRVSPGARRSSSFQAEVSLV
# T6: human VPAC2 receptor (human, UniProt P41587 24-438)
# T6 sequence (looked up): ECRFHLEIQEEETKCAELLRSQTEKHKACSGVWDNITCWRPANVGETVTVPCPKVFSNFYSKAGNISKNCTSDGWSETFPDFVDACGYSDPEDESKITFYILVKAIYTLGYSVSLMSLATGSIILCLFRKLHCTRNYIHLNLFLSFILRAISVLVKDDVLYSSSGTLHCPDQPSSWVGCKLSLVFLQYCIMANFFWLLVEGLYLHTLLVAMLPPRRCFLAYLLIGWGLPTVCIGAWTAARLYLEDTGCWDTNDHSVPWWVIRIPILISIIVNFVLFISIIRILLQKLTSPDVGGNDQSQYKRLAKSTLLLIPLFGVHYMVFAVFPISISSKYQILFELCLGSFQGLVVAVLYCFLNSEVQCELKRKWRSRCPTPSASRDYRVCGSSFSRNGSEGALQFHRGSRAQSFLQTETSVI
# T7: human VPAC1 receptor (human, UniProt P32241 31-457)
# T7 sequence (looked up): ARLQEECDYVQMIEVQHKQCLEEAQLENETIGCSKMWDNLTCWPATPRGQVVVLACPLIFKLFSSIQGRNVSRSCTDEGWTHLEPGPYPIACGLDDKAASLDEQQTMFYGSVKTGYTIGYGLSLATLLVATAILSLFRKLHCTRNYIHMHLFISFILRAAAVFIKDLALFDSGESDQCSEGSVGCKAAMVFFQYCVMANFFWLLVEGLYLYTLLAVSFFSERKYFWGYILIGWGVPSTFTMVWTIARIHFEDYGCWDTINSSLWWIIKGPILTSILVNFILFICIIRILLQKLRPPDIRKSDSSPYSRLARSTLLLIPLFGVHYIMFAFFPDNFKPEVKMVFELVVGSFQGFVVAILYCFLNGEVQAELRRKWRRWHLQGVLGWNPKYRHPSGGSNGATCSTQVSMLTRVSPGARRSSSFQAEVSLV
# Columns and labels:
# [1] = target: T1, rat VPAC1 receptor; experiment: DiscoveRx cAMP assay, in vitro potency at rat VPAC1 receptor; format: cell-based; details: CHO-PO cells transiently transfected with rat VPAC1; cAMP generation; mean of two independent runs
# Experimental: DiscoveRx: CHO-PO cells are transiently transfected with rat VPAC1 or VPAC2 receptor DNA using commercially available transfection reagents (Lipofectamine from Invitrogen). The cells are seeded at a density of 10,000/well in a 96-well plate and are allowed to grow for 3 days in […] culture medium. At day 3, the assay is performed.
# On the day of the experiment, the medium is removed. Also, the cells are washed twice. The cells are incubated in assay buffer plus IBMX for 15 minutes at room temperature. Afterwards, the stimuli are added and are dissolved in assay buffer. The stimuli are present for 30 minutes. Then, the assay buffer is gently removed. The cell lysis reagent of the DiscoveRx cAMP kit is added. Thereafter, the standard protocol for developing the cAMP signal as described by the manufacturer is used (DiscoveRx Inc., USA). EC50 values for cAMP generation are calculated from the raw signal or are based on absolute cAMP levels as determined by a standard curve performed on each plate.
# Results for each agonist are the mean of two independent runs. Rat VPAC1 and VPAC2 results are only generated using the DiscoveRx assay.
# [2] = target: T2, human PAC1; experiment: Filter binding assay, 125I-labeled PACAP-27 tracer, PAC1 membranes; details: read-out: Human PAC1 Receptor Binding (IC50; nM)
# [3] = Rat serum stability (activity remaining, CHO-VPAC2 DiscoveRx read-out); format: in vitro ADME
# How it was run: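 Peptides preincubated overnight in rat serum at 37 °C without aprotinin versus 4 °C with aprotinin, then tested as 11-point 5× dilutions in duplicate on CHO-VPAC2 cells, 30 min at RT. cAMP measured by DiscoveRx kit against standards; EC50 derived for each aliquot.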
# [4] = target: T3, human VPAC2; experiment: Filter binding assay, 125I-labeled VIP tracer, VPAC2 membranes; details: read-out: Human VPAC2 Receptor Binding (IC50; nM)
# Experimental: For this assay, the solutions and equipment include:
# Presoak solution: 0.5% Polyethyleneamine in Aqua dest
# Buffer for flushing filter plates: 25 mM HEPES pH 7.4
# Blocking buffer: 25 mM HEPES pH 7.4; 0.2% protease free BSA
# Assay buffer: 25 mM HEPES pH 7.4; 0.5% protease free BSA
# Dilution and assay plate: PS-Microplate, U form
# Filtration Plate: Multiscreen FB Opaque Plate; 1.0 μM Type B Glasfiber filter
# In order to prepare the filter plates, the presoak solution is aspirated by vacuum filtration. The plates are flushed twice with 200 μL flush buffer. 200 μL blocking buffer is added to the filter plate. The filter plate is then incubated with 200 μL presoak solution for 1 hour at room temperature.
# The assay plate is filled with 25 μL assay buffer, 25 μL membranes (2.5 μg) suspended in assay buffer, 25 μL compound (agonist) in assay buffer, and 25 μL tracer (about 40000 cpm) in assay buffer. The filled plate is incubated for 1 hour with shaking.
# The transfer from assay plate to filter plate is conducted. The blocking buffer is aspirated by vacuum filtration and washed two times with flush buffer. 90 μL is transferred from the assay plate to the filter plate. The 90 μL transferred from assay plate is aspirated and washed three times with 200 μL flush buffer. The plastic support is removed. It is dried for 1 hour at 60° C. 30 μL Microscint is added. The count is performed.
# [5] = target: T3, human VPAC2; experiment: Alpha screen cAMP assay, in vitro potency at human VPAC2 receptor; format: cell-based; details: cAMP generation; single result from two analyses in a single run, some values average of more than one experiment
# [6] = target: T4, rat VPAC2 receptor; experiment: DiscoveRx cAMP assay, in vitro potency at rat VPAC2 receptor; format: cell-based; details: CHO-PO cells transiently transfected with rat VPAC2; cAMP generation; mean of two independent runs
# [7] = target: T5, human VPAC1; experiment: Filter binding assay, 125I-labeled VIP tracer, VPAC1 membranes; details: read-out: Human VPAC1 Receptor Binding (IC50; nM)
# [8] = target: T6, human VPAC2 receptor; experiment: cell-based or functional assay
# [9] = target: T7, human VPAC1 receptor; experiment: cell-based or functional assay
"Human VPAC2 Receptor: DiscoveRx (EC50; nM), cAMP generation [8]","Human VPAC1 Receptor: DiscoveRx (EC50; nM), cAMP generation [9]",Molecule,EC50 [1],IC50 [2],Rat Serum Stability (estimated purity in % after overnight incub.) [3],IC50 [4],EC50 [5],EC50 [6],IC50 [7]
–,–,CCCCCC(=O)N[C@@H](Cc1c[nH]cn1)C(=O)N[C@@H](CO)C(=O)N[C@@H](CC(=O)O)C(=O)N[C@@H](C)C(=O)N[C@H](C(=O)N[C@@H](Cc1ccccc1)C(=O)N[C@H](C(=O)N[C@@H](CC(=O)O)C(=O)N[C@@H](CC(N)=O)C(=O)N[C@@H](Cc1ccc(O)cc1)C(=O)N[C@H](C(=O)N[C@@H](CCCN)C(=O)N[C@@H](CC(C)C)C(=O)N[C@@H](CCCNC(=N)N)C(=O)NC(C)(C)C(=O)N[C@@H](CCC(N)=O)C(=O)N[C@H](C(=O)N[C@@H](C)C(=O)N[C@@H](C)C(=O)NC(C)(C)C(=O)N[C@@H](CCCCN)C(=O)N[C@@H](Cc1ccc(O)cc1)C(=O)N[C@@H](CC(C)C)C(=O)N[C@@H](CCC(N)=O)C(=O)N[C@@H](CS)C(=O)N[C@H](C(=O)N[C@@H](CCCN)C(=O)N[C@@H](CC(N)=O)C(=O)N[C@@H](CCCN)C(=O)NCC(=O)NCC(=O)N1CCC[C@H]1C(=O)N[C@@H](CO)C(=O)N[C@@H](CO)C(=O)NCC(=O)N[C@@H](C)C(=O)N1CCC[C@H]1C(=O)N1CCC[C@H]1C(=O)N1CCC[C@H]1C(=O)N[C@@H](CO)C(=O)O)[C@@H](C)CC)C(C)C)[C@@H](C)O)[C@@H](C)O)C(C)C [Agonist P372] (Hexanoyl-HSDAVFTDNYT[Orn]LR[Aib]QVAA[Aib]KYLQCI[Orn]N[Orn]GGPSSGAPPPS-OH; C-terminus assumed),1.67 nM,> 25000 nM,13.93%,4.82 nM,0.65 nM,0.18 nM,> 3000 nM
3.02 nM,18.3 nM,HSDAVFTDNYTRLRKQVAAKKYLQSIKNKRQGGPSSGAPPPS [VPAC2 receptor peptide agonist P29],–,–,–,–,–,–,–
